This is an account of results in patent US20240076297A1, “ADENOSINE A2A AND A2B RECEPTOR DUAL ANTAGONISTS FOR IMMUNO-ONCOLOGY” (Merck Sharp & Dohme LLC, priority 2020, published 2024).

Chain of human A2A adenosine receptor (P29274 whole entry): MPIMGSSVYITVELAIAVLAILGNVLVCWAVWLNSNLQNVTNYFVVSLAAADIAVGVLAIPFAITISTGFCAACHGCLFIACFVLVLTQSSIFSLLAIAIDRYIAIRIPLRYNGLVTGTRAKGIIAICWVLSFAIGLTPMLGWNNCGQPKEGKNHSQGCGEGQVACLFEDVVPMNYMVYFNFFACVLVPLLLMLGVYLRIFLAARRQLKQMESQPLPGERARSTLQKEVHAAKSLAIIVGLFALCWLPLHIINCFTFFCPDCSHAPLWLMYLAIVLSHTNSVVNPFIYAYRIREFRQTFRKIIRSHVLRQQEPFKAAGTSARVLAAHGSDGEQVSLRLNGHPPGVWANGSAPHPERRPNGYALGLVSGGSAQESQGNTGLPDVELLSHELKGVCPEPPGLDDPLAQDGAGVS

This assay deals with human A2A adenosine receptor (Homo sapiens (Human), UniProt P29274). In words: A2A binding affinity using SPA, Method (B). The conditions noted are these: [3H] SCH58261, A2A receptor-expressing membranes. From the text:
Method (A) describes the procedure used to measure A2A binding affinity using radioligand binding. Method (B) describes the procedure used to measure A2A binding affinity using SPA technology. The method used to measure A2B binding affinity is also described below. The method used to determine the A2A IC50 value reported for each compound in the table is indicated next to the reported value. The A2B IC50 value measured using the A2B binding affinity assay is shown in the table next to the compound under the corresponding A2A value.
The A2A receptor affinity binding assay measured the amount of binding of a tritiated ligand with high affinity for the A2A adenosine receptor to membranes made from HEK293 or CHO cells recombinantly expressing the human A2A adenosine receptor, in the presence of varying concentrations of a compound of the invention. The data were generated using either filtration binding or a homogenous scintillation proximity assay (SPA).
Method (B): Measurement of A2A Binding Affinity Using SPA
Binding affinity using SPA was conducted as follows. Test compounds (50 nL) were dispensed into individual wells of a 384-well OptiPlate™ well (Perkin Elmer) by Echo® acoustic liquid transfer (Labcyte). 20 μL of 1.25 nM [^3H] SCH58261 ((7-(2-phenylethyl)-5-amino-2-(2-furyl)-pyrazolo-[4,3-e]-1,2,4-triazolo[1,5-c]pyrimidine)) in DPBS assay buffer (Dulbecco's phosphate buffered saline without calcium and magnesium, ThermoFisher Scientific, Cat. No. A1285601) supplemented with 10 mM MgCl2 was added. A2A receptor-expressing membranes were incubated with 20 μg/mL adenosine deaminase (Roche, Cat. No. 10 102 105 001) for 15 min at room temperature. The receptor-expressing membranes were then combined with wheat germ agglutinin-coated yttrium silicate SPA beads (GE Healthcare, Cat. No. RPNQ0023) in a ratio of 1:1000 (w/w) and incubated for 30 min at room temperature. 30 μL of the membrane/bead mixture (0.25 μg and 25 μg per well respectively) were added to the 384-well OptiPlate™ well. To define total and non-specific binding, wells containing 1% DMSO or 1 μM CGS15943 (Tocris Bioscience, Cat. No. 1699) respectively were also included in the experiment. The plate was incubated for 1 h at room temperature with agitation. The assay plate was then incubated for an h to allow the beads to settle before data were collected using a TopCount® (Perkin Elmer) scintillation counter. After normalization to total and non-specific binding, the percent effect at each compound concentration was calculated. The plot of percent effect versus the log of compound concentration was analyzed electronically using a 4-parameter logistic fit based on the Levenberg-Marquardt algorithm to generate IC50 values.
As to `CCC#CCOCc1nc2c3cccc(OC)c3nc(N)n2n1` [Example 4.9, 7-methoxy-2-((pent-2-yn-1-yloxy)methyl)-[1,2,4]triazolo[1,5-c]quinazolin-5-amine], the IC50 stood at 6.1 nM. In turn, `COc1cccc2c1nc(N)n1nc(CO[C@H](C)c3ccc(F)cc3)nc21` [Example 4.6, (R)-2-((1-(4-fluorophenyl)ethoxy)methyl)-7-methoxy-[1,2,4]triazolo[1,5-c]quinazolin-5-amine] yielded an IC50 of 8.3 nM. For `COc1cccc2c1nc(N)n1nc(COCC(F)(F)F)nc21` [Example 4.11, 7-methoxy-2-((2,2,2-trifluoroethoxy)methyl)-[1,2,4]triazolo[1,5-c]quinazolin-5-amine] the value was 3.5 nM; for `COc1cccc2c1nc(N)n1nc(CCCSc3ccc(C(F)(F)F)cc3)nc21` [Example 1.2, 7-methoxy-2-(3-((4-(trifluoromethyl)phenyl)thio)propyl)-[1,2,4]triazolo[1,5-c]quinazolin-5-amine], 8.4 nM; for `COc1cccc2c1nc(N)n1nc(CCCCl)nc21` [Example 1.1, 2-(3-chloropropyl)-7-methoxy-[1,2,4]triazolo[1,5-c]quinazolin-5-amine], 15.5 nM. As for `COc1cccc2c1nc(N)n1nc(CSCc3ccc(F)cc3)nc21` [Example 1.3, 2-(((4-fluorobenzyl)thio)methyl)-7-methoxy-[1,2,4]triazolo[1,5-c]quinazolin-5-amine], the IC50 was found to be 7.3 nM. For `CCOCc1nc2c3cccc(OC)c3nc(N)n2n1` [Example 4.2, 2-(ethoxymethyl)-7-methoxy-[1,2,4]triazolo[1,5-c]quinazolin-5-amine] the value was 8.7 nM; for `COc1cccc2c1nc(N)n1nc(COCc3ccsc3)nc21` [Example 4.3, 7-methoxy-2-((thiophen-3-ylmethoxy)methyl)-[1,2,4]triazolo[1,5-c]quinazolin-5-amine], 2.7 nM; for `COc1cccc2c1nc(N)n1nc(COC(C)C)nc21` [Example 4.13, 2-(isopropoxymethyl)-7-methoxy-[1,2,4]triazolo[1,5-c]quinazolin-5-amine], 5.7 nM.

For orientation: IC50 means the concentration that inhibits the measured activity by half.
